Reference: patent publication US4613586A, “Gastrin releasing peptide-like peptides” (Board of Trustees of the Leland Stanford Junior University, priority 1984, dated 1986)
No end group written: not given here.

Assays:
Type in all cases: binding, rabbit
[1] = test system: GRP(1-27) antisera Code R3-2; assay: GRP carboxyterminal radioimmunoassay (crossreactivity, displacement of 125I-GRP(1-27) trace); conditions: for Percent Crossreactivity in RIA GRP(1-27) Code R3-2: antisera dilution 1:20,000, GRP(1-27) trace and standard, based on amount of unlabeled peptide for 50 percent displacement, highest concentration tested 1 μM; for Crossreactivity with GRP carboxyterminal antiserum (in words): summary of Table 1
From the text: (§1) Three GRP antisera were generated in rabbits against synthetic porcine GRP and GRP(1-16) (Peninsula Laboratories, San Carlos, CA) linked by a water soluble carbodiimide to bovine throglobulin (as described by Weber, E., Evans, C. J., Chang, J-K. and Barchas, J. D., J. Neurochem 38, 436-447 (1982). RIA conditions have been described in Weber, E., Evans, C. J., and Barchas, J. D., Nature 299, 77-79 (1982). Three GRP RIA's were utilized, the specificity of these RIA's is indicated in Table 1.
(§2) An antisera dilution of 1:20,000 for the GRP(1-27) R3-2 antisera and a dilution of 1:15,000 for the GRP(1-16) R2-6A were used for RIA. For these RIA's GRP(1-27) was used as ^125 I-trace and standard. An antisera dilution of 1:20,000 for GRP(1-16) R2-6B and GRP(1-16) trace and standard were used in the GRP(1-16) carboxyterminal assay. Crossreactivity was based on the amount of unlabeled peptide needed to obtain a 50 percent displacement of ^125 I-trace from the antisera. The highest concentration of unlabeled peptide tested was 1 μM.

[2] = test system: GRP(1-16) antisera Code R2-6A; assay: GRP aminoterminal radioimmunoassay (crossreactivity, displacement of 125I-GRP(1-27) trace); conditions: summary of Table 1
From the text: as §1, §2

[3] = test system: GRP(1-16) antisera Code R2-6B; assay: GRP(1-16) carboxyterminal radioimmunoassay (crossreactivity, displacement of 125I-GRP(1-16) trace); conditions: summary of Table 1
From the text: as §1, §2

CSCC[C@H](NC(=O)[C@H](CC(C)C)NC(=O)[C@H](Cc1cnc[nH]1)NC(=O)CNC(=O)[C@@H](NC(=O)[C@H](C)NC(=O)[C@H](Cc1c[nH]c2ccccc12)NC(=O)[C@H](CCC(N)=O)NC(=O)[C@H](CC(N)=O)NC(=O)CNC(=O)[C@H](CC(C)C)NC(=O)[C@H](CCCN=C(N)N)NC(=O)[C@H](CCC(N)=O)NC(=O)[C@@H]1CCC(=O)N1)C(C)C)C(N)=O [Bombesin]
Percent Crossreactivity in RIA GRP(1-27) Code R3-2 [1]: 30%
Crossreactivity with GRP carboxyterminal antiserum (in words) [1]: crossreacted

CSCC[C@H](NC(=O)[C@H](CC(C)C)NC(=O)[C@H](Cc1c[nH]cn1)NC(=O)CNC(=O)[C@@H](NC(=O)[C@H](C)NC(=O)[C@H](Cc1c[nH]c2ccccc12)NC(=O)[C@H](Cc1c[nH]cn1)NC(=O)[C@H](CC(N)=O)NC(=O)CN)C(C)C)C(N)=O [GRP(18-27), Gly-Asn-His-Trp-Ala-Val-Gly-His-Leu-Met-NH2]
Percent Crossreactivity in RIA GRP(1-27) Code R3-2 [1]: 60%
Crossreactivity with GRP carboxyterminal antiserum (in words) [1]: crossreacted
Crossreactivity in GRP aminoterminal RIA (in words) [2]: not

APVSVGGGTVLAKMYPRGNHWAVGHLM-NH2 [GRP]
Percent Crossreactivity in RIA GRP(1-27) Code R3-2 [1]: 100%
Crossreactivity with GRP carboxyterminal antiserum (in words) [1]: crossreacted
Crossreactivity in GRP aminoterminal RIA (in words) [2]: crossreacted
Crossreactivity with GRP(1-16) carboxyterminal antisera (in words) [3]: little crossreactivity
